Laboratory results published in PMC7127735 (Bioorganic & Medicinal Chemistry, 2011).

Key:
HEL cells = experiment: Minimum cytotoxic concentration, alteration of cell morphology in HEL cells; assay type: cell-based, human; settings: for Minimum cytotoxic concentration (MCC) (HEL): Table 1, microscopically detectable alteration of normal cell morphology; for Minimum cytotoxic concentration (HEL): Table 2, microscopically detectable alteration of cell morphology
HIV-1 = settings: cited from earlier work
TK+ VZV strain YS = experiment: Plaque reduction, TK+ VZV strain YS in HEL cells; assay type: cell-based, varicella-zoster virus; settings: Human alphaherpesvirus 3, HEL, read-out: EC50 TK+ VZV strains YS

| Compound | Minimum cytotoxic concentration (MCC) (HEL) (HEL cells) | Minimum cytotoxic concentration (HEL) (HEL cells) | activity against HIV-1 in PBM cells (HIV-1) | EC50 (TK+ VZV strain YS) |
| --- | --- | --- | --- | --- |
| C[C@H](NP(=O)(OC[C@H]1O[C@@H](n2cc(I)c(=O)[nH]c2=O)C(F)(F)[C@@H]1O)Oc1ccccc1)C(=O)OCc1ccccc1 (stereo partly drawn) [Compound 16, 2′-Deoxy-2′,2′-difluoro-D-5-iodouridine 5′-O-phenyl-(benzoxy-alaninyl)-phosphate] | >100 µM | – | – | – |
| C[C@H](NP(=O)(OC[C@H]1O[C@@H](n2cc(Cl)c(=O)[nH]c2=O)C(F)(F)[C@@H]1O)Oc1ccccc1)C(=O)OCc1ccccc1 (stereo partly drawn) [Compound 21, 2′-Deoxy-2′,2′-difluoro-D-5-chlorouridine 5′-O-phenyl-(benzoxy-alaninyl)-phosphate] | >100 µM | >50 µM | – | – |
| Nc1nc2c(ncn2COCCO)c(=O)[nH]1 [Acyclovir, reference compound] | – | >400 µM | – | – |
| COC(=O)[C@H](C)NP(=O)(OC[C@H]1O[C@@H](n2cc(I)c(=O)[nH]c2=O)C(F)(F)[C@@H]1O)Oc1ccccc1 (stereo partly drawn) [Compound 17, 2′-Deoxy-2′,2′-difluoro-D-5-iodouridine 5′-O-phenyl-(methoxy-alaninyl)-phosphate] | >100 µM | >50 µM | – | – |
| C[C@H](NP(=O)(OC[C@H]1O[C@@H](n2cc(Br)c(=O)[nH]c2=O)C(F)(F)[C@@H]1O)Oc1ccccc1)C(=O)OCc1ccccc1 (stereo partly drawn) [Compound 20, 2′-Deoxy-2′,2′-difluoro-D-5-bromouridine 5′-O-phenyl-(benzoxy-alaninyl)-phosphate] | >100 µM | >50 µM | – | – |
| Nc1ncnc2c1ncn2C1OC(CO)C(O)C1(F)F (stereo not drawn) [adenine derivative] | – | – | 3.4 µM | – |
| Nc1nc(O)c2ncn(COC(CO)CO)c2n1 [Ganciclovir, reference compound] | >100 µM | – | – | – |
| O=c1[nH]c(=O)n([C@H]2C[C@H](O)[C@@H](CO)O2)cc1/C=C/Br [Brivudin, reference compound] | – | ⩾300 μM | – | 11 nM |
